{"source": "patent US20230233566A1", "about": "“INHIBITION OF BMI1 ELIMINATES CANCER STEM CELLS AND ACTIVATES ANTITUMOR IMMUNITY” (The Regents of the University of California, priority 2020, published 2023)", "system": "cytosolic dsDNA", "assay": "Cytosolic dsDNA staining (PicoGreen/MitoTracker)", "format": "cell-based, human", "details": "SCC23 and SCC1 cells", "experimental": "Following the treatment, SCC23 and SCC1 cells were incubated with culture media containing PicoGreen (dsDNA stain, 200-fold dilution, Thermo Fisher Scientific, Cat #P11496) and MitoTracker ([…], 100 nM, Thermo Fisher Scientific, Cat #M7512). One hour after incubation, cells were fixed with 4% paraformaldehyde for 10 min. Cells were then washed twice with PBS and stained with DAPI (Sigma-Aldrich, Cat #D9542) and mounted with SlowFade Antifade Reagents (Thermo Fisher Scientific, Cat #536937). Staining was imaged and assessed using a Leica SP5X laser scanning confocal microscope."}
{"molecule": "COc1cc(Br)c(Nc2nc(-c3c(C)nc4ncccn34)cs2)c(Br)c1", "note": "[PTC209, N-(2,6-dibromo-4-methoxyphenyl)-4-(2-methylimidazo[1,2-a]pyrimidin-3-yl)thiazol-2-amine]", "values": [{"measurement": "accumulation of cytosolic dsDNA", "value": "induced the accumulation of cytosolic dsDNA"}]}
